Several values for one entry are separate records, joined by “and”; a condition that tells them apart may be missing. Equal values may be shown once. Read-outs that look alike come from different tables or passages of the source.
Columns and labels:
[1] = system: cochlear afferent synapses; set-up: method as in Hu et al., 2020; settings: mouse; ~2.5 days of sustained intracochlear delivery; synaptopathic noise ref Hu et al., 2020; cited from earlier work
[2] = system: GluA2-lacking AMPARs; set-up: method as in Magazanik et al., 1997; Buldakova et al., 1999; settings: ref Magazanik et al., 1997; Buldakova et al., 1999; read-out: IC50 on cells expressing GluA2-lacking AMPARs; cited from earlier work
[3] = Drug levels in blood, perilymph and CSF after IP injection (LC/MS); assay type: in vivo, guinea pig; settings: for Kp / half-life: NIH-strain, pigmented, guinea pig; for Kp: ip; for half-life: blood, in vivo, IP injection: IEM-1460 13.5 mg/kg, IEM-1925 8 mg/kg, estimated from PK data, read-out: elimination half-life in blood
Experimental: After at least 30 min of baseline data, 1 mL of Lactated Ringer's was injected into the peritoneal space of the guinea pig as a vehicle control. Then, 13.5 mg/kg IEM-1460 or 8 mg/kg IEM-1925 in Lactated Ringer's was injected into the peritoneal space of the guinea pig. The entire experiment took ~3 h to complete: 1 h for anesthetic induction and surgery, 30 min for sound calibration and CAP threshold measurements, and 2 h for drug delivery, DPOAE and CAP measurements. After collection of perilymph and CSF, the animal was euthanized via saturated KCl delivered directly into the jugular vein.
General surgical scissors were used to clip the toenail at a 45° angle to collect blood with a premarked glass capillary tube during the baseline period and after drug injection. The exact volume was determined by measurement of the fluid meniscus in a calibrated capillary tube. […] Complete details used to perform apical fluid sampling are presented elsewhere and are only briefly provided here (Mynatt et al., [2006]). Similar to the apical cochlear fenestration used to deliver drugs (described above), the mucosa on the cochlea was cleared from two apical turns using a small cotton swab, and the bone at the apex was allowed to dry. A droplet of thin cyanoacrylate adhesive was applied and cup formed over the apex with silicone adhesive. A small perforation (50–100 μm diameter) was then made in the bone over scala vestibuli at the apex using a 30° pick. Upon perforation, fluid immediately started emerging, driven by intralabyrinthine pressure from CSF, and formed a bead within the hydrophobic silicone cup. A calibrated 5 μL capillary micropipette (VWR #5342-706, S. Plainfield, NJ) was held by hand in contact with the fluid at the apex, so that fluid was drawn into the capillary in ~30 s. The exact volume was determined by measurement of the fluid meniscus. Perilymph from the opposite ear was sampled prior to euthanizing the animal, then ~2 μL of CSF was aspirated by inserting a micropipette through the dura mater into the cisterna magna. After the fluid meniscus from the capillary tube was measured, the capillary tube was then flushed with 25.0 μL 50:50 methanol-water solvent to ensure that all the sample was collected.
The concentration of IEM-1460 in perilymph, blood, and CSF was analyzed using LC-MS (Confluence Life Sciences, St. Louis, MO). LC-MS-grade acetonitrile, LC-grade methanol, formic acid, sodium hydroxide 0.1 M, perfluoroheptanoic acid, formic acid, and hydrochloric acid were purchased from Sigma-Aldrich (USA). Deionized water (R > 18 MΩ/cm, TOC <10 ppb) was used throughout all these experiments. IEM-1460 and IEM-1925 were purchased from Tocris Bioscience (Bristol, UK). A 10 mM stock solution was made for both IEM-1460 and IEM-1925 in 50% aqueous methanol. For calibration of the specific compound concentration in the tested matrix (i.e., plasma or CSF/perilymph), a set of standard solutions were prepared by diluting concentrated stock solutions with 50% aqueous methanol into guinea pig plasma matrix or artificial perilymph (in mM: 127.5 NaCl, 3.5 KCl, 25 NaHCO3, 1.3 CaCl2, 1.2 MgCl2, 0.75 NaH2PO4, and 11 glucose) to have a set of standards from 1 to 300 ng/mL. […] Calibration standard samples using verapamil were prepared for each batch of samples ranging from 1 to 300 ng/mL and injected at both the beginning and end of the sample sequence. The methodology for LC-MS for blood has previously been described (Da Silva et al., [2016]; Guiraud et al., [2017]). Separation and analysis were performed on a LC instrument (Exion LC AD, AB SCIEX, USA) coupled to a Sciex QTRAP5500 with TurboV Ion Source (SCIEX, Concord, ON, Canada) equipped with a heated electrospray ionization (H-ESI) source. Chromatographic separation was obtained using a gradient elution on a reversed-phase Kinetex F5 (Phenomenex, Aschaffenburg, Germany) column (2.1 × 50 mm), packed with 1.7 μm diameter particles. […]

[4] = Heart rate and blood oxygenation monitoring during systemic dosing; assay type: in vivo, guinea pig; settings: IP injection: IEM-1460 13.5 mg/kg, IEM-1925 8 mg/kg; N = 4
Experimental: This study utilized 21 NIH-strain, pigmented guinea pigs weighing from 400 to 650 g, in accordance with policies and protocols approved by the Institutional Animal Care and Use Committee at Washington University in St. Louis (20180133, 20190035). Animals were anesthetized with intraperitoneal (IP) injection of 100 mg/kg sodium thiobutabarbital (Inactin, Sigma, St. Louis, MO). Once anesthetized, the fur from the head and neck was shaved and a tracheal cannula was placed. The animal was maintained on 0.8–1.2% isoflurane in oxygen using a mechanical ventilator. The ventilator's tidal volume was adjusted to maintain a 5% end-tidal CO2 which was monitored with a CapnoTrue AMP (Bluepoint Medical, Zevenaar, The Netherlands). Body temperature was maintained at 38 degrees C with a DC-powered heating blanket-rectal thermometer (Model 50-7079; Harvard Apparatus). Heart rate and oxygen saturation were monitored with a pulse oximeter (Surgivet, Waukesha, WI). The auditory bulla was exposed ventrally for placement of recording electrodes. The jugular vein was cannulated to maintain hydration with 0.5 mL per hour of Lactated Ringer's solution. […]
Systemic delivery of IEM-1925 (8 mg/kg, IP) reduced CAP amplitude to a similar extent as IEM-1460 (13.5 mg/kg, IP). […] Blood oxygenation and heart rate were monitored along with cochlear physiology during the time course of the experiment. […]

Row | SMILES | effect on noise-induced synapse loss and ABR wave-I amplitude [1] | IC50 [2] [µM] | time to plateau of blood plasma concentration ([3]; IP 13.5 mg/kg) [min] | concentration in blood plasma at plateau ([3]; IP 13.5 mg/kg, average, N = 3) | concentration in blood ([3]; IP 13.5 mg/kg, converted from 7 μg/mL) [µM] | perilymph level as % of blood level ([3]; IP 13.5 mg/kg, ~2 h after injection, N = 3, 13.5 mg/kg) | concentration in perilymph ([3]; IP 13.5 mg/kg, ~2 h after injection, from blood level and perilymph/blood ratio, 13.5 mg/kg) | Kp ([3]; CSF relative to blood, 13.5 mg/kg, IP 13.5 mg/kg, ~2 h after injection, N = 3, read-out: CSF level as % of blood level) | half-life [3] [h] | Kp ([3]; perilymph relative to blood, 13.5 mg/kg, IP 13.5 mg/kg, ~2 h after injection, N = 3, read-out: perilymph level as % of blood level) | LC/MS detection in perilymph or CSF ([3]; IP 8 mg/kg) | levels detected in blood ([3]; IP 8 mg/kg) | temporary reduction in heart rate [4]
1 | C[N+](C)(C)CCCCCNCC12CC3CC(CC(C3)C1)C2 [IEM-1460] | prevented synapse loss and loss of wave-I amplitude | 1 to 3 | ≤ 30 | ~ 7 μg/mL | 23.8 | 17–45% | 4–11 μM and ~ 7 μM | 0.08 to 0.23 | 1.97 | ~0.3 |  |  | 
2 | NCCCCCNC1(c2ccccc2)CCCCC1 [IEM-1925] |  |  |  |  |  |  |  |  | 1.13 |  | did not detect significant | Very low levels | No such reduction

Reference: paper PMC8287724, “Reducing Auditory Nerve Excitability by Acute Antagonism of Ca^2+-Permeable AMPA Receptors” (Frontiers in Synaptic Neuroscience, 2021)
